Laboratory results: patent publication US7977327B2, “Substituted pyrrolidine derivative” (Daiichi Sankyo Company, Limited, priority 2004, dated 2011)
Converted amounts (≈) assume the structure as drawn. Marks after values point to notes of the source that are not given here.

Legend:
[1] = test system: Slc:ddY male mice; assay: Effect of inducing convulsion, intracisternal administration to mice; format: in vivo; settings: i.cist., Probit method
Protocol: The compounds (Compound Nos. 1, 2, and 3) of the present invention and Comparative Compounds A and B were individually dissolved in 5% glucose, to thereby prepare several samples to be tested. Groups of six-week-old Slc:ddY male mice (body weight: 23.9 to 27.4 g), each group consisting of 6 mice, were employed in the test. Each of the above-prepared samples was administered intracisternally to each mouse belonging to each group at concentrations shown in Tables 2 and 3 (5 μL/mouse). During 30 minutes after administration, it was observed whether each mouse suffered convulsion or died in an individual cage. Administration was performed according to the method described by Ueda, et al. (Reference 1).
Reference 1: Ueda H, Amano H, Shiomi H, Takagi H: Comparison of the analgesic effects of various opioid peptides by a newly devised intracisternal injection technique in conscious mice. Eur J Pharmacol. 1979; 56: 265-8.
Significant difference test between groups was performed in terms of incidence of convulsion according to the Fisher's direct probability calculation method (one-sided test, level of significance: P<0.05). On the basis of percentile incidence of convulsion, CD50 (50% concentration for inducing convulsion) and 95% confidence limit were calculated by the Probit method.

[2] = test system: E. coli NIHJ; assay: Antibacterial activity (MIC), standard method of the Japan Society of Chemotherapy; format: cell-based; settings: Escherichia coli; E. coli NIHJ; read-out: MIC
Protocol: (§1) The antimicrobial activities of the compounds of the present invention were determined according to a standard method designated by the Japan Society of Chemotherapy. The results are expressed by MIC (μg/mL) (Table 1). In Table 1, S. aureus 870307 and S. pneumonia J24 are quinolone-resistant bacteria.

[3] = test system: S. aureus 870307; assay: as above; format: cell-based; settings: Staphylococcus aureus; S. aureus 870307, quinolone-resistant; read-out: MIC
Protocol: as §1

[4] = test system: S. aureus FDA 209P; assay: as above; format: cell-based; settings: Staphylococcus aureus, FDA209P; S. aureus FDA 209P; read-out: MIC
Protocol: as §1

[5] = test system: S. marcescens 10100; assay: as above; format: cell-based; settings: Serratia marcescens; S. marcescens 10100; read-out: MIC
Protocol: as §1

[6] = test system: S. epidermidis 56500; assay: as above; format: cell-based; settings: Staphylococcus epidermidis; S. epidermidis 56500; read-out: MIC
Protocol: as §1

[7] = test system: S. pneumoniae J24; assay: as above; format: cell-based; settings: Streptococcus pneumoniae; S. pneumoniae J24, quinolone-resistant; read-out: MIC
Protocol: as §1

[8] = test system: S. flexneri 2A 5503; assay: as above; format: cell-based; settings: Shigella flexneri, 2A5503, read-out: MIC
Protocol: as §1

[9] = test system: P. Vulgalis 08601; assay: as above; format: cell-based; settings: P. Vulgalis 08601; read-out: MIC
Protocol: as §1

[10] = test system: K. pneumoniae TYPE I; assay: as above; format: cell-based; settings: Klebsiella pneumoniae; K. pneumoniae TYPE I; read-out: MIC
Protocol: as §1

[11] = test system: S. pyogenes G-36; assay: as above; format: cell-based; settings: Streptococcus pyogenes, G36; S. pyogenes G-36; read-out: MIC
Protocol: as §1

[12] = test system: P. aeruginosa 32104; assay: as above; format: cell-based; settings: Pseudomonas aeruginosa; P. aeruginosa 32104; read-out: MIC
Protocol: as §1

[13] = test system: S. maltophilia IID 1275; assay: as above; format: cell-based; settings: Stenotrophomonas maltophilia, IID1275; S. maltophilia IID 1275; read-out: MIC
Protocol: as §1

[14] = test system: E. faevcalis ATCC 19433; assay: as above; format: cell-based; settings: E. faevcalis ATCC 19433; read-out: MIC
Protocol: as §1

[15] = test system: P. aeruginosa 32121; assay: as above; format: cell-based; settings: Pseudomonas aeruginosa; P. aeruginosa 32121; read-out: MIC
Protocol: as §1

[16] = test system: Chinese hamster lung (CHL/IU) cells; assay: Effect of inducing chromosomal aberration; format: cell-based; settings: for Percentile induction of structural aberration (TA %): 24 hours, CHL/IU cells
Protocol: From each sample solution, samples to be tested having a concentration of 1, 3, 10, 30, 50, and 100 μg/mL (as reduced to free form) were prepared. As a negative control, 0.1 mol/L NaOH was employed.
Chinese hamster lung (CHL/IU) cells in logarithmic growth phase were employed. The cells were treated in a culture solution containing each sample to be tested for 24 hours. Subsequently, a chromosome specimen was prepared from the thus-treated cells. The culture solution employed was an Eagle's MEM (product of NISSUI PHARMACEUTICAL CO., LTD.) medium containing 15% fetal bovine serum (15% FBS-MEM).
In each sample concentration, 100 cells during metaphase were observed, to thereby record types and numbers of the chromosomal aberration.

Compound: CC[C@H]1CN(c2c(F)cc3c(=O)c(C(=O)O)cn([C@@H]4C[C@@H]4F)c3c2OC)C[C@H]1N [Compound No. 1, 7-[(3S,4S)-3-Amino-4-ethylpyrrolidin-1-yl]-6-fluoro-1-[(1R,2S)-2-fluorocyclopropyl]-8-methoxy-1,4-dihydro-4-oxoquinoline-3-carboxylic acid]
- CD50 (50% concentration for inducing convulsion), with 95% confidence limit [1]: 49.2^b) μg/5 μL/mouse
- MIC [2]: 0.006 µg/mL (≈ 0.0147 µM)
- MIC [3]: 0.2 µg/mL (≈ 0.491 µM)
- MIC [4]: 0.006 µg/mL (≈ 0.0147 µM)
- MIC [5]: 0.1 µg/mL (≈ 0.245 µM)
- MIC [6]: 0.05 µg/mL (≈ 0.123 µM)
- MIC [7]: 0.025 µg/mL (≈ 0.0614 µM)
- MIC [8]: 0.006 µg/mL (≈ 0.0147 µM)
- MIC [9]: 0.012 µg/mL (≈ 0.0295 µM)
- MIC [10]: 0.025 µg/mL (≈ 0.0614 µM)
- MIC [11]: 0.05 µg/mL (≈ 0.123 µM)
- MIC [12]: 0.2 µg/mL (≈ 0.491 µM)
- MIC [13]: 0.05 µg/mL (≈ 0.123 µM)
- MIC [14]: 0.1 µg/mL (≈ 0.245 µM)
- MIC [15]: 0.1 µg/mL (≈ 0.245 µM)
- Percentile induction of structural aberration (TA %) ([16]; 1 μg/mL): 0%
- Percentile induction of structural aberration (TA %) ([16]; 3 μg/mL): 1%
- Percentile induction of structural aberration (TA %) ([16]; 10 μg/mL): 2%
- Percentile induction of structural aberration (TA %) ([16]; 30 μg/mL): 3%
- Percentile induction of structural aberration (TA %) ([16]; 50 μg/mL): 2%
- Percentile induction of structural aberration (TA %) ([16]; 100 μg/mL): 7%
- Significant increase in number of the cells exhibiting chromosomal aberration ([16]; at a concentration of up to 100 μg/mL): not observed
